Where “and” joins values, the source holds several entries; their conditions need not be identical. Equal values may be shown once. Entries after “also recorded” stand apart in the source; their conditions may differ. Read-outs that look alike come from different tables or passages of the source.
Key:
soybean hairy root lines = test: Quantitative root growth test of soybean hairy root lines with 5MT; type: cell-based; conditions: solid medium, 8 weeks; compared with A. sinicus
Description: The soybean (cv. Williams 82) cotyledons from 4 to 6-day-old-seedlings were harvested and wounded with a scalpel previously-dipped into an overnight culture of the A. rhizogenes strain K599. Cotyledons were inoculated by cutting the adaxial face several times to form a checked wound site and the abaxial side was placed on sterile distilled water partially immersed filter paper and incubated as described above. Three days after inoculation, cotyledons were transferred to medium containing Murashige and Skoog basal minerals and B5 organics (Gamborg, O. L., et al. Expt. Cell. Res. 50: 148-151, 1968) solidified with 3 g/1 Gellan gum (Kelko, Division of Merck) (MXB medium) in 100×25 mm petri dishes. To inhibit the growth of bacteria and to select transformed roots, 500 mg/l of carbenicillin disodium and 200 mg/l kanamycin were added to the MXB medium. After hairy roots developed from wounded cotyledons,. single root tips (2-3 cm) were excised and used to establish bacteria-free root clones by subculture to fresh MXB solid medium grown at 28° C. in the dark. […]
Large numbers of kanamycin resistant root lines were produced from soybean cotyledons transformed with pBIN-ASA2 and a quantitative root growth test was also performed to assess the extent of 5MT resistance of the transformed hairy root lines. […]

[1] = system: A. sinicus hairy root lines; test: Quantitative root growth test of A. sinicus hairy root lines with 5MT; type: cell-based
Description: Hairy roots were weighed to determine fresh weight, and these samples were dried for 12 h at […] before dry weight determination.
Since expression of the feedback-insensitive ASA2 gene should increase resistance to the Trp analog 5MT as shown previously with E. coli (Song et al., 1998), a quantitative root growth test was used to assess the extent of 5MT resistance of the transformed hairy root lines. Transformed roots were grown for 6 weeks with 0, 10, 15, 20, 25, 30, 40, 50, 75 and 100 μM 5MT in both MS liquid and solid medium, respectively (FIGS. 18A to 18C and FIGS. 19A and 19B).

A. sinicus seedlings = test: Direct selection of hairy root lines from A. sinicus seedlings; type: cell-based
Description: Four to seven day old seedlings of A. sinicus with roots removed were then fully immersed in the 1 day cultured bacterial suspension in a petri dish for 10 min, wiped with sterilized filter paper and then placed on partially water immersed filter paper and incubated under 16 h light ([…] m-2 s-1, cool white fluorescent lamps). Three days after co-cultivation, plants were transferred to Murashige and Skoog (Murashige, T., & Skoog, F. Physiol. Plant. 15:473-497, 1962), MS, medium solidified with 3g/l Gellan Gum containing 500 mg/l of carbenicillin disodium and 75 mg/l kanamycin.
Since the A. sinicus hairy root lines initially selected for kanamycin-resistance but which were also transformed with the feedback-insensitive ASA2 cDNA show resistance to growth inhibition by 5MT (FIG. 18), we wanted to determine if direct selection could be done for A. sinicus hairy root line formation on medium containing 5MT (FIGS. 21A and 21B). Transformation of A. sinicus seedlings with DC-AR2 harboring pBIN-ASA2 gave rise to hairy root line formation on medium containing 0, 15, 20, 25, 30 and 40 μM 5MT but inhibition occurred at 50, 75 and 100 μM.

E. coli trpE5972 = test: Complementation and inhibition tests in trpE mutant E. coli; type: cell-based; conditions: no Trp
Description: The pQES61K was transformed into a trpE nonsense (trpE 5972) mutant E. coli. The trpE nonsense mutant E. coli (trpE 5972) transformed with an expression vector itself (Vector) and the ASA2 cDNA ligated into the expression vector (ASA2) were plated on the M9 minimal medium containing, isopropyl-thiogalactoside (IPTG, 0.1 mM) and ampicillin (100 μg/ml) and either with Trp (+Trp, FIG. 5A) or without Trp (−Trp, FIG. 5B). The complemented strain grew well on M9 medium without Trp and also with 300 μM 5MT (FIG. 5C) which inhibits the growth of the complemented strain carrying feedback-sensitive plant AS (Bohlmann et al., Plant Physiol., 111: 507-514, 1996).
The chimeric constructs were transformed into trpE mutant E. coli (trpE5972, nonsense mutant) using CaCl2 transformation (Sambrook et al., 1989, supra). Complemented strains were plated on M9 minimal medium containing ampicillin (100 μg/ml) and isopropylthiogalactoside (IPTG, 0.1 mM), but no Trp. For the inhibition test, 300 μM 5MT was added to the minimal medium described previously. FIGS. 16A and 16B were taken two days after streaking.

anthranilate synthase = test: AS activity in extracts of A. sinicus hairy root lines, inhibition by Trp; type: biochemical; conditions: control lines; Trp concentration causing 50% inhibition; NH4Cl as second substrate; read-out: apparent Ki for Trp
Description: Extracts were prepared using a Tenbroeck tissue grinder (Kontes Glass Co., Vineland, N.J.), and the ASA1 extraction buffer (2 ml/g tissue) described by Bernasconi and coworkers (Bernasconi, P., et al., Plant Physiol., 106: 353-358, 1994). After removal of cellular debris by centrifugation (10 min at 35,000 × g and 4° C.), one volume of the supernatant was combined with two volumes of room temperature saturated (NH4)2SO4, and then centrifuged as before. The resulting pellet was resuspended in extraction buffer (1 ml/g tissue) and used immediately. When glutamine was used as the second substrate for the AS catalyzed reaction, the resuspended enzyme solution was desalted using Sephadex G25 to remove residual (NH4)2SO4.
AS activity was measured as described in Song et al. (1998, supra) except the assay buffer was that described by Bernasconi et al. (1994, supra) without NH4Cl in the buffer. Either 100 mM NH4Cl or 10 mM glutamine was added to the assay mixture to determine α-subunit activity or AS holoenzyme activity, respectively.

AS [2] = conditions: cited from earlier work; for Ki: read-out: apparent Ki for Trp
AS [3] = test: AS activity in extracts of tobacco suspension cultured cells, inhibition by Trp; type: biochemical, N. tabacum; conditions: 100 μM Trp; original 5MT-resistant cell lines
Arabidopsis ASA1 = target: T1, Arabidopsis ASA1 (Arabidopsis thaliana, UniProt P32068); test: Feedback inhibition assay of Arabidopsis ASA1 expressed in E. coli; type: biochemical, A. thaliana; conditions: 100 μM and lower concentrations of Trp; crude E. coli cell extract
T1 construct: made in house; host or cells: E. coli JM109
T1 sequence (P32068 55-595): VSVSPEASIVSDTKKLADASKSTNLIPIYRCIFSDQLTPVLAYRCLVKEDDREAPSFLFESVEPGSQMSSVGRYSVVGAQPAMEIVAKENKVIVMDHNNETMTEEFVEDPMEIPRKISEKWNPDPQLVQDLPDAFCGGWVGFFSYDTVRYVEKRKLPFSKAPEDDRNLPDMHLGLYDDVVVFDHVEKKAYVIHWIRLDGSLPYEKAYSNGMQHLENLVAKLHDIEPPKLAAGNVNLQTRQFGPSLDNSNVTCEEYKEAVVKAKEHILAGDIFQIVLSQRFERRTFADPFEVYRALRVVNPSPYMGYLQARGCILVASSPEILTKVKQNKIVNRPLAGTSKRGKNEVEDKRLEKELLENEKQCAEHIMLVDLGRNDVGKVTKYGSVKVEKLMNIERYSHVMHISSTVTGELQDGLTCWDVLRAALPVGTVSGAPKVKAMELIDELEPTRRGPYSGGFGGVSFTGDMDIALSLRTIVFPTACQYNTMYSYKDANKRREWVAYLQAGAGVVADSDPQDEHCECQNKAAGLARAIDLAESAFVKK
Description: The tobacco ASA2 gene was expressed in E. coli strain trpE5972, a mutant line containing a nonsense trpE gene, grown to late log phase on Luria Bertani medium with 100 μM Trp. Expression was induced by addition of 100 μM isopropylthiogalactoside. A protease inhibitor, 135 μM phenylmethylsulfonylfluoride (PMSF), was added with further incubation for three hours at 30° C., 150 rpm. The cells were collected by centrifugation and resuspended in 50 mM Tris, 5 mM MgCl2, 100 mM NH4Cl, 2 mM dithiothreitol, 20% glycerol, pH 8.0 plus 100 μM PMSF and disrupted using a French press (2 passes, 20,000 psi). Cell debris was removed by centrifugation and the supernatant treated with Ni-affinity resin. Bound protein was eluted with […] imidazole in pH 6.3 buffer. The Arabidopsis ASA1 gene was similarly expressed except that the E. coli strain JM109 was used and enzyme activity in a crude cell extract without Ni-affinity purification was characterized.
Enzyme activity was measured with and without Trp in 50 mM Tris, 5 mM M?gCl2, 1 mM EDTA, 100 mM NH4Cl, 2 mM dithiothreitol, 20% glycerol, pH 7.8 plus 100 μM chorismate. Anthranilate produced in; 30 min at 30° C. was extracted using ethyl acetate and fluorescence measured at excitation 340 and emission 400.

tobacco ASA2 [4] = conditions: ASA2 expressed in E. coli; read-out: apparent Ki for Trp; cited from earlier work
tobacco ASA2 [5] = test: Feedback inhibition assay of tobacco ASA2 expressed in E. coli; type: biochemical, N. tabacum; conditions: partially purified ASA2 expressed in E. coli
Description: The tobacco ASA2 gene was expressed in E. coli strain trpE5972, a mutant line containing a nonsense trpE gene, grown to late log phase on Luria Bertani medium with 100 μM Trp. Expression was induced by addition of 100 μM isopropylthiogalactoside. A protease inhibitor, 135 μM phenylmethylsulfonylfluoride (PMSF), was added with further incubation for three hours at 30° C., 150 rpm. The cells were collected by centrifugation and resuspended in 50 mM Tris, 5 mM MgCl2, 100 mM NH4Cl, 2 mM dithiothreitol, 20% glycerol, pH 8.0 plus 100 μM PMSF and disrupted using a French press (2 passes, 20,000 psi). Cell debris was removed by centrifugation and the supernatant treated with Ni-affinity resin. Bound protein was eluted with 100 μM imidazole in pH 6.3 buffer.

altered AS = altered AS (Arabidopsis thaliana, UniProt P32068, D341N); conditions: 100 μM Trp; cited from earlier work
[6] = control hairy root lines, 6 weeks
[7] = seedlings transformed with DC-AR2 harboring pBIN-ASA2

Chain of altered AS (P32068 55-595 D341N): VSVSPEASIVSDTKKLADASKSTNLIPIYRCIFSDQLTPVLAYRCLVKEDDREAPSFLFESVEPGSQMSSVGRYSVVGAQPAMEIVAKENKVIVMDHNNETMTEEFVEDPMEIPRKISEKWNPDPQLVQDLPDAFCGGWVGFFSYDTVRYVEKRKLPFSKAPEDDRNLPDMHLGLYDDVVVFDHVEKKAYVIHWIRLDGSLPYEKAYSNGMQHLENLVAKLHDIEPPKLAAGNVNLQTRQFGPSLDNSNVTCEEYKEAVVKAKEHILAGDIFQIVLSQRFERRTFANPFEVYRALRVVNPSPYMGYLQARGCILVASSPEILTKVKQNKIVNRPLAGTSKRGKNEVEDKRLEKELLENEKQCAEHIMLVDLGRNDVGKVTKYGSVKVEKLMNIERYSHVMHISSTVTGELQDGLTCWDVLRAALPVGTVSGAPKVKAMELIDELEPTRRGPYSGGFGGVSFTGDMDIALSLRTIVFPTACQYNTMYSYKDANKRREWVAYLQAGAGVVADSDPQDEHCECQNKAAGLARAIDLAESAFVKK

## Cc1ccc2[nH]cc(C[C@H](N)C(=O)O)c2c1 [5MT, 5-methyltryptophan]
Soybean hairy root lines
  Sensitivity of hairy root lines to 5MT inhibition: more sensitive to 5MT inhibition than those of A. sinicus
[1]; [6]
  5MT concentration inhibiting hairy root growth: 10 to 20 µM
  5MT concentration of almost complete inhibition: ≥ 30 µM
[1]; control hairy root lines, liquid medium
  5MT concentration at which lines turned brown and died: ≥ 20 µM
[1]; transformed lines A-7, 8, 9, 10 and 20, liquid medium
  5MT concentration at which lines grew: up to 100 μM
[1]; transformed lines A-7, 8, 9, 10 and 20, maximum concentration tested
  5MT concentration at which lines are able to grow: up to 100 μM
A. sinicus seedlings
  5MT concentration for effective direct selection of 35S-ASA2 transformed roots: 15 to 40 µM
A. sinicus seedlings; control roots, DC-AR2, subculture
  5MT concentration at which roots turned brown and died: ≥ 15 µM
A. sinicus seedlings; control, transformed with DC-AR2
  5MT concentration at which no hairy root lines were formed: ≥ 25 µM
A. sinicus seedlings; [7]
  5MT concentration allowing hairy root line formation: ≤ 40 µM
  5MT concentration at which inhibition of hairy root formation occurred: ≥ 50 µM
E. coli trpE5972; site-directed mutagenized ASA2 alone, 10 μM 5MT
  Growth on minimal medium with 5MT: could not grow
E. coli trpE5972; strain transformed with ASA2 cDNA, 300 μM 5MT
  Growth on minimal medium with 5MT: grew well; also recorded: not inhibited
E. coli trpE5972; strain transformed with site-directed mutant (Ser107, Gln108), 300 μM 5MT
  Growth on minimal medium with 5MT: did not grow

## N[C@@H](Cc1c[nH]c2ccccc12)C(=O)O [Trp, tryptophan]
Anthranilate synthase
  Ki: 2000 nM and 3000 nM
AS [2]; 900 μM Trp, 5MT-selected tobacco cells overexpressing ASA2, also AB15-12-1
  AS activity remaining: 20%
AS [2]; extracts of 5MT-resistant tobacco suspension cultured cells
  Ki: 300000 nM
AS [2]; extracts of wild-type tobacco suspension cultured cells
  Ki: 2000 nM
AS [3]
  enzyme activity of the feedback-insensitive ASA2: 50%
Arabidopsis ASA1
  Inhibition of Arabidopsis ASA1 gene product by Trp: completely inhibited
Tobacco ASA2 [4]
  Ki: 100000 nM
Tobacco ASA2 [5]
  AS activity remaining at 100 μM Trp: 50%
Altered AS
  AS inhibition by Trp: 95%

From patent US6563025B1, “Nucleotide sequences encoding anthranilate synthase” (Board of Trustees of the University of Illinois, priority 1996, dated 2003)
